What was measured:
Format in all cases: in vitro ADME
CYP2C9 = CYP2C9 (Homo sapiens, UniProt P11712); assay: Reaction phenotyping with recombinant CYP enzymes (opelconazole as substrate); settings: incubated with 0.01 and 0.1 µM opelconazole
Method: The testing of opelconazole as a potential substrate of CYP1A2, 2B6, 2C8, 2C9, 2C19, 2D6 and 3A4 was determined in vitro using recombinant CYP enzymes. Two concentrations of opelconazole (0.01 and 0.1 µM) were tested with each of the seven CYPs.
The relative contributions of CYP3A4 and CYP2C9 were ∼75% and 25%, respectively, when incubated with 0.01 and 0.1 µM opelconazole.

BCRP = target: T1, BCRP (Homo sapiens, UniProt Q9UNQ0); assay: Transporter inhibition
T1 construct: expressed in transfected cells
T1 sequence (Q9UNQ0 1-655): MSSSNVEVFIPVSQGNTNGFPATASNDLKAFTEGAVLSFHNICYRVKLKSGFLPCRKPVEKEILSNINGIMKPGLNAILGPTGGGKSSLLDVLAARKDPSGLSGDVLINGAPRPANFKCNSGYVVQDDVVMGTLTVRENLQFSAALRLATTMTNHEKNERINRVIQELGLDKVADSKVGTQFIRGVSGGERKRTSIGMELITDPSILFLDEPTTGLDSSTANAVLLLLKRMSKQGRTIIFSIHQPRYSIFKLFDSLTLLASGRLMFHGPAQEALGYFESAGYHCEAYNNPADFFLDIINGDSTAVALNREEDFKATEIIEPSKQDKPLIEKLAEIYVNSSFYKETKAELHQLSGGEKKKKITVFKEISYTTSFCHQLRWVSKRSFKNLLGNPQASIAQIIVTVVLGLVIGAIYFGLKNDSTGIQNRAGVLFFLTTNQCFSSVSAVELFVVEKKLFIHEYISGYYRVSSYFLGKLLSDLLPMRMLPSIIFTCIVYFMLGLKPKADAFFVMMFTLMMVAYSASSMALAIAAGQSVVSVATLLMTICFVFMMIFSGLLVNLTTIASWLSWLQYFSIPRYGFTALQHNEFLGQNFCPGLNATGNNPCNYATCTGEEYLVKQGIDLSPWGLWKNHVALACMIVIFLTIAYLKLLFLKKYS
Method: (§1) Human transporter protein interactions with opelconazole as a potential substrate and/or inhibitor were assessed for the following key carrier transporters: organic anion transporters, OAT1 and OAT3; organic cation transporters, OCT1 and OCT2; OATP1B1 and OATP1B3; multidrug and toxin extrusion, MATE-1 and MATE2-K; key ATP-binding cassette (ABC) transporters including P-gp, breast cancer resistance protein (BCRP) and bile salt export pump (BSEP). Two concentrations of opelconazole, 0.5 and 5 μM, were tested using MDCKII cells, human embryonic kidney 293 cells and BSEP-transfected sf9 membrane vesicles and then analysed by LC-tandem MS to determine transporter inhibition and whether opelconazole was a transporter substrate. The viability of experimental test systems was confirmed with controls and known probe substrates and probe inhibitors.

BSEP = target: T2, BSEP (Homo sapiens, UniProt O95342); assay: Transporter inhibition; settings: 0.5 and 5 μM tested
T2 construct: expressed in transfected cells; host or cells: Sf9 membrane vesicles
T2 sequence (O95342 whole entry): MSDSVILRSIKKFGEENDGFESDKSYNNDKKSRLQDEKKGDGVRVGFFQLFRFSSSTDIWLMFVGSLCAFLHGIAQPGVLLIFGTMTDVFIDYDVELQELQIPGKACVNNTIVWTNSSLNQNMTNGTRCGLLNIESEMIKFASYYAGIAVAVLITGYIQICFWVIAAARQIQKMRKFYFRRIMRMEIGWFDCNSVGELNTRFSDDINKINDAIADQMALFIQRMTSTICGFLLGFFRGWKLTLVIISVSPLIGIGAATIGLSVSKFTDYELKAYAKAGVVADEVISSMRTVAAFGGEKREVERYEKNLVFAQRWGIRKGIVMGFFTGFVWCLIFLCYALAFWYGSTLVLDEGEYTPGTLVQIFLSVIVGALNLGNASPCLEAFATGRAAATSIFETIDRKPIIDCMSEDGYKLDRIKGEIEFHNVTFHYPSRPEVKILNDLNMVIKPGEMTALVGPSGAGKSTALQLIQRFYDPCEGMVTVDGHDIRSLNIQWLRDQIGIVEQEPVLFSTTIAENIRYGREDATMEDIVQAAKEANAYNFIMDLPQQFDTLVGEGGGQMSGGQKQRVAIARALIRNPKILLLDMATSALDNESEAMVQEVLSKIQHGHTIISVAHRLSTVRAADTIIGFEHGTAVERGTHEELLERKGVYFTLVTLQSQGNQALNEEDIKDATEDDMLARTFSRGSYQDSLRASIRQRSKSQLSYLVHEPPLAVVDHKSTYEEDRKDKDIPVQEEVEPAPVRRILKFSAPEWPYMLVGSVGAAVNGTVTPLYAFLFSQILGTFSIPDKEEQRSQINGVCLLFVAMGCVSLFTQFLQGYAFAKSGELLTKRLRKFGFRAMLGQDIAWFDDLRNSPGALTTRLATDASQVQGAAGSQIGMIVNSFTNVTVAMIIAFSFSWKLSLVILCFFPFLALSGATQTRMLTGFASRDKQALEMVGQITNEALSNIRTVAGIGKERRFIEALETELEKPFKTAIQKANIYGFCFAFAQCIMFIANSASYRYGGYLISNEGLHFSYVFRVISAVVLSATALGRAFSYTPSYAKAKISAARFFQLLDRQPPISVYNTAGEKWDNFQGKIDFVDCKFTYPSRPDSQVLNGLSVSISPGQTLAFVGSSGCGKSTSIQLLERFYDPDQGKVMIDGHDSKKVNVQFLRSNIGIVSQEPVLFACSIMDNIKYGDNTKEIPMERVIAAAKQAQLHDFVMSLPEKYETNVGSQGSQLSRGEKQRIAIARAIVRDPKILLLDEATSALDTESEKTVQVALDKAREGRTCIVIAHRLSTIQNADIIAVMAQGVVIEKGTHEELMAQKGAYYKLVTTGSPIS
Method: as §1

OATP1B1 = target: T3, OATP1B1 (Homo sapiens, UniProt Q9Y6L6); assay: Transporter inhibition; settings: 0.5 and 5 μM tested
T3 construct: expressed in transfected cells
T3 sequence (Q9Y6L6 1-691): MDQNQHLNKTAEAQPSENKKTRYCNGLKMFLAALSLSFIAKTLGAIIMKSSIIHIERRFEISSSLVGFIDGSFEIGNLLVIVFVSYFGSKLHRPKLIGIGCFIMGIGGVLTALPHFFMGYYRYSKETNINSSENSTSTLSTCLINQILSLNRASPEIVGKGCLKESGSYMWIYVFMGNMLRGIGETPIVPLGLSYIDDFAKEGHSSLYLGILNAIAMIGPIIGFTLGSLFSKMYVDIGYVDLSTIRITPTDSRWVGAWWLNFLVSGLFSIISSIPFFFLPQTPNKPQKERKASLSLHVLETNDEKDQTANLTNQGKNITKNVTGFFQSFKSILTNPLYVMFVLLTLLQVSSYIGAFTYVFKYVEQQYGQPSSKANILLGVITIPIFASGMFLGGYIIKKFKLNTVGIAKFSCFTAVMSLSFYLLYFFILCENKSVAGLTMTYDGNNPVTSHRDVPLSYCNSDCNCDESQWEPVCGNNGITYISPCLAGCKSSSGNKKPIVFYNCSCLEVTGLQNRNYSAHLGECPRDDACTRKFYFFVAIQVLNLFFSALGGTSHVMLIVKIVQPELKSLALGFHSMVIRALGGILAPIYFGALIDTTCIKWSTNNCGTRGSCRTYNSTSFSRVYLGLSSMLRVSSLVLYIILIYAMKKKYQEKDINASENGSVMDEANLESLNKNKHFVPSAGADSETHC
Method: as §1

OCT1 = target: T4, OCT1 (Homo sapiens, UniProt O15245); assay: Transporter inhibition; settings: 0.5 and 5 μM tested
T4 construct: expressed in transfected cells
T4 sequence (O15245 1-554): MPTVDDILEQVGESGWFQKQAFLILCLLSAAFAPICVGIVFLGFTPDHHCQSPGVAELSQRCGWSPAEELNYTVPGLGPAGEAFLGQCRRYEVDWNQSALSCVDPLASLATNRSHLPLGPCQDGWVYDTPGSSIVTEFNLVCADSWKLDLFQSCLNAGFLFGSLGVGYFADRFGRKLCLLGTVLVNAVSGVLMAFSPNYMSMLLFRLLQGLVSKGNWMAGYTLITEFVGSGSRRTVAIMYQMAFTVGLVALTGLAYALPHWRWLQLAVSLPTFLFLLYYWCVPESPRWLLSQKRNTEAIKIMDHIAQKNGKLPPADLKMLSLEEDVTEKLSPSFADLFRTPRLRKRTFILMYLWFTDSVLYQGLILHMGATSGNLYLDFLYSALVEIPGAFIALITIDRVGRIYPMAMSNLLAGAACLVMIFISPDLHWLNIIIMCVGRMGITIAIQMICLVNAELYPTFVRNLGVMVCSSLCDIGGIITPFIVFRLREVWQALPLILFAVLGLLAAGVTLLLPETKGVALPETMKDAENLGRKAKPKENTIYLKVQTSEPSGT
Method: as §1

P-gp = target: T5, P-gp (Homo sapiens, UniProt P08183); assay: Transporter inhibition
T5 construct: expressed in transfected cells
T5 sequence (P08183 whole entry): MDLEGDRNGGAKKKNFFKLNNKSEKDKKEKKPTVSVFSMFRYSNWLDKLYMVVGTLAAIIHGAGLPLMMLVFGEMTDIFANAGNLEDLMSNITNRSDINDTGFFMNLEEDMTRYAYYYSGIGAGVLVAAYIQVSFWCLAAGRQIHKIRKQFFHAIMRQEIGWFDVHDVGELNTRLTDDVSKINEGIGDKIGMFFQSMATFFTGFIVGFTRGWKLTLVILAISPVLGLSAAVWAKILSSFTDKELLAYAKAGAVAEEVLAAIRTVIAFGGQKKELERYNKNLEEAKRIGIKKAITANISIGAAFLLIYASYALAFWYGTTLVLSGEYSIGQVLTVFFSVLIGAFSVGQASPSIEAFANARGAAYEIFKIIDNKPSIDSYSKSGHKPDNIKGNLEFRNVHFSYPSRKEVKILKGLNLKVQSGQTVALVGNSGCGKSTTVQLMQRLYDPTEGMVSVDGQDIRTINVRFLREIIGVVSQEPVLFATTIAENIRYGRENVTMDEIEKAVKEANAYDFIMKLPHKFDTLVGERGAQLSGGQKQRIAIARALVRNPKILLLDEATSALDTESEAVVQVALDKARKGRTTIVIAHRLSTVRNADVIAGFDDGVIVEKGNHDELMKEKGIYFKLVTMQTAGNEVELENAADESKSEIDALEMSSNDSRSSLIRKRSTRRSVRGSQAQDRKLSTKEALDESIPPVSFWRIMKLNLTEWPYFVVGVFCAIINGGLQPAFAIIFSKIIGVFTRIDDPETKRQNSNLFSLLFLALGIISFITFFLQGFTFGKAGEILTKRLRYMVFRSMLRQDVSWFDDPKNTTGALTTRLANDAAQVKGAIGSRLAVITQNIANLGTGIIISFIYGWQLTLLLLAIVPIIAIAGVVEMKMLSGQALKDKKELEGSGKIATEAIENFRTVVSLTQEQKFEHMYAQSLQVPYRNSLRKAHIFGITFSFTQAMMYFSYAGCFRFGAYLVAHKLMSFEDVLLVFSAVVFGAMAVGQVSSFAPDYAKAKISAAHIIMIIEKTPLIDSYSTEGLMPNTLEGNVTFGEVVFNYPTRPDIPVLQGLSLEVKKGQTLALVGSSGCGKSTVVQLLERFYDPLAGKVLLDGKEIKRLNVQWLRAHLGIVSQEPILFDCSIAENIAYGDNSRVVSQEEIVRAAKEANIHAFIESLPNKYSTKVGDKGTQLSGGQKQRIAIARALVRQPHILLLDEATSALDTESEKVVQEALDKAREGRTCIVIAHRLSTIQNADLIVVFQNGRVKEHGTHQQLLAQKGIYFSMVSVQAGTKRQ
Method: as §1

Sequence of CYP2C9 (P11712 whole entry): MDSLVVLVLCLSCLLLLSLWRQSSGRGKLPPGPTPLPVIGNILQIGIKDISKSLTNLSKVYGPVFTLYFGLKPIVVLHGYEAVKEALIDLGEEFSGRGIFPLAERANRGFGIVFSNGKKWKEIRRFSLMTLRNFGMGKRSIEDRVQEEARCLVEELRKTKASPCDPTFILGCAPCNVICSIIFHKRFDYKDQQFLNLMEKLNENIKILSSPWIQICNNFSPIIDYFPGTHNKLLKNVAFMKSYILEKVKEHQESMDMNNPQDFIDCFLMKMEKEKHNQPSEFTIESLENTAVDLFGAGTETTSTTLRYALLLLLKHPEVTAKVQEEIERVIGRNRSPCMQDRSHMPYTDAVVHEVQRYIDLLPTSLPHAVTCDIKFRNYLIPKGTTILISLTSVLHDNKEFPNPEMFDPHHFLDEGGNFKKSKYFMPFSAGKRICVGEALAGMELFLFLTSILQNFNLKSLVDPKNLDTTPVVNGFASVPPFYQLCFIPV

Compound: Cc1cc(N2CCN(c3ccc(C(=O)Nc4ccc(F)cc4)cc3)CC2)ccc1OC[C@@H]1CO[C@@](Cn2cncn2)(c2ccc(F)cc2F)C1 [opelconazole]
- relative contribution of CYP2C9 to metabolism of opelconazole (CYP2C9): ~25%
- inhibition of BCRP relative to solvent control (BCRP; 0.5 μM opelconazole): 52%
- inhibition of BCRP relative to solvent control (BCRP; 5 μM opelconazole): 56%
- inhibitory interaction with BSEP (BSEP): negligible inhibitory interactions
- inhibitory interaction with OATP1B1 (OATP1B1): negligible inhibitory interactions
- inhibitory interaction with OCT1 (OCT1): negligible inhibitory interactions
- inhibitory interaction with P-gp (P-gp; 0.5 μM opelconazole): negligible inhibitory interactions
- inhibition of P-gp relative to solvent control (P-gp; 5 μM opelconazole): 52%
